In ChEMBL document CHEMBL1201862, “PubChem BioAssay data set” (2004):
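Grown in 96-well plates, cells were treated for 48 hours with each compound at five concentrations. Insufficient inhibition: endpoint recorded as highest concentration tested. Abbreviation: GI50, concentration required for 50% inhibition of growth.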 Activity calls are given as the source filed them. Rule as the data show it: active = GI50 up to about 1.1 µM and inactive = higher.

Key:
Test in all cases: NCI anticancer screen, dose series, 48 h
HOP-92 = system: HOP-92
IGROV-1 = system: IGROV-1
NCI-H23 = system: NCI-H23
K562 = system: K562
786-0 = system: 786-0
Malme-3M = system: Malme-3M
ACHN = system: ACHN
CCRF-CEM = system: CCRF-CEM
HT-29 = system: HT-29
SF-268 = system: SF-268
SF-295 = system: SF-295
A498 = system: A498
OVCAR-8 = system: OVCAR-8
SK-MEL-5 = system: SK-MEL-5
KM12 = system: KM12
SK-MEL-2 = system: SK-MEL-2
NCI-H460 = system: NCI-H460

Measured: GI50

OCCCCCNc1ccnc2cc(Cl)ccc12
inactive: HOP-92 > 100 µM | IGROV-1 > 100 µM | NCI-H23 > 100 µM | K562 21.9 µM | 786-0 > 100 µM | Malme-3M > 100 µM | ACHN > 100 µM | CCRF-CEM > 100 µM | HT-29 29.2 µM | SF-268 > 100 µM | SF-295 47.3 µM | A498 > 100 µM | OVCAR-8 64.1 µM | SK-MEL-5 53.5 µM | KM12 > 100 µM | SK-MEL-2 > 100 µM | NCI-H460 69.3 µM

COc1cc(Nc2nc3cc(C(F)(F)F)ccc3nc2-c2ccccc2)cc(OC)c1OC
inactive: HOP-92 1.82 µM | IGROV-1 27 µM | NCI-H23 > 100 µM | K562 > 100 µM | 786-0 40.7 µM | Malme-3M > 100 µM | ACHN 65.5 µM | CCRF-CEM > 100 µM | HT-29 > 100 µM | SF-268 > 100 µM | SF-295 54.6 µM | A498 > 100 µM | OVCAR-8 > 100 µM | SK-MEL-5 34.4 µM | KM12 > 100 µM | SK-MEL-2 > 100 µM | NCI-H460 > 100 µM

C#CCN(N=O)C(=O)NC(CCCNC(=O)OCc1ccccc1)C(=O)OCc1ccccc1 (centres undefined)
inactive: HOP-92 30.9 µM | IGROV-1 > 100 µM | NCI-H23 > 100 µM | K562 61.9 µM | 786-0 > 100 µM | Malme-3M > 100 µM | ACHN > 100 µM | CCRF-CEM 22.8 µM | HT-29 > 100 µM | SF-268 18.2 µM | SF-295 > 100 µM | A498 > 100 µM | OVCAR-8 43.4 µM | SK-MEL-5 > 100 µM | KM12 > 100 µM | SK-MEL-2 > 100 µM | NCI-H460 > 100 µM

CCN1C(=O)/C(=C\c2coc3ccccc3c2=O)SC1=S
inactive: HOP-92 > 100 µM | IGROV-1 > 100 µM | NCI-H23 58.9 µM | K562 > 100 µM | 786-0 73.8 µM | Malme-3M > 100 µM | ACHN > 100 µM | CCRF-CEM 65.6 µM | HT-29 > 100 µM | SF-268 66.8 µM | SF-295 42 µM | A498 > 100 µM | OVCAR-8 > 100 µM | SK-MEL-5 > 100 µM | KM12 > 100 µM | SK-MEL-2 > 100 µM | NCI-H460 > 100 µM

CSC1CC2C(CC1(C)SC)C2(C)C (centres undefined)
inactive: HOP-92 16.3 µM | IGROV-1 42.8 µM | NCI-H23 61.7 µM | K562 24.3 µM | 786-0 64.9 µM | Malme-3M 41.8 µM | ACHN > 100 µM | CCRF-CEM 28.2 µM | HT-29 38.8 µM | SF-268 > 100 µM | SF-295 30.8 µM | A498 > 100 µM | OVCAR-8 39.5 µM | SK-MEL-5 24.4 µM | KM12 48.2 µM | SK-MEL-2 23.2 µM | NCI-H460 23.9 µM

CN(C)CC1CCCC/C1=N/OC(=O)c1ccc(Cl)c(Cl)c1 (centres undefined)
inactive: HOP-92 66.5 µM | IGROV-1 > 100 µM | NCI-H23 > 100 µM | K562 > 100 µM | 786-0 > 100 µM | Malme-3M > 100 µM | ACHN > 100 µM | CCRF-CEM > 100 µM | HT-29 > 100 µM | SF-268 > 100 µM | SF-295 > 100 µM | A498 > 100 µM | OVCAR-8 > 100 µM | SK-MEL-5 > 100 µM | KM12 > 100 µM | SK-MEL-2 > 100 µM | NCI-H460 > 100 µM

CN1C(c2ccccc2)CC(=O)C(N)C1c1ccccc1 (centres undefined)
inactive: HOP-92 25.8 µM | IGROV-1 43.5 µM | NCI-H23 42.5 µM | K562 30.6 µM | 786-0 31.3 µM | Malme-3M 22.1 µM | ACHN 35.9 µM | CCRF-CEM 25.2 µM | HT-29 23.9 µM | SF-268 38.2 µM | SF-295 48.9 µM | A498 > 67.6 µM | OVCAR-8 26.8 µM | SK-MEL-5 18.8 µM | KM12 23.9 µM | SK-MEL-2 19.4 µM | NCI-H460 22.2 µM

CCCCCCCCC(=O)CCCCCCCCC(=O)O
inactive: HOP-92 18.9 µM | IGROV-1 18.7 µM | NCI-H23 30.3 µM | K562 18.9 µM | 786-0 22.9 µM | Malme-3M 31.3 µM | ACHN 25.3 µM | CCRF-CEM 28.6 µM | HT-29 23 µM | SF-268 23.9 µM | SF-295 26.4 µM | A498 23.9 µM | OVCAR-8 17.3 µM | SK-MEL-5 15.5 µM | KM12 17.3 µM | SK-MEL-2 36.1 µM | NCI-H460 21.3 µM

CCCCCCCC/C=C1\CCC(CN(C)C)C1=O (centres undefined)
inactive: HOP-92 3.33 µM | IGROV-1 8.17 µM | NCI-H23 10.7 µM | K562 2.51 µM | 786-0 1.53 µM | Malme-3M 3.18 µM | ACHN 6.61 µM | CCRF-CEM 1.54 µM | HT-29 4.35 µM | SF-268 7.29 µM | SF-295 6.5 µM | A498 16.5 µM | OVCAR-8 3.23 µM | SK-MEL-5 8.45 µM | KM12 2.31 µM | SK-MEL-2 12 µM | NCI-H460 10.7 µM

O=S(O)CCCCSSCc1ccccc1CSSCCCCS(=O)O
inactive: HOP-92 21.9 µM | IGROV-1 49.4 µM | NCI-H23 18 µM | K562 16.6 µM | 786-0 > 100 µM | Malme-3M 8.91 µM | ACHN 18.7 µM | CCRF-CEM 3.88 µM | HT-29 8.34 µM | SF-268 12.5 µM | SF-295 17 µM | A498 40.7 µM | OVCAR-8 17.1 µM | SK-MEL-5 8.79 µM | KM12 19 µM | SK-MEL-2 35.2 µM | NCI-H460 51.9 µM

O=C1C2C3C=CC(C2C(=O)N1COP(=O)(O)O)C1C2C(=O)N(COP(=O)(O)O)C(=O)C2C31 (centres undefined)
inactive: HOP-92 > 100 µM | IGROV-1 > 100 µM | NCI-H23 > 100 µM | K562 > 67 µM | 786-0 > 71.6 µM | Malme-3M > 100 µM | ACHN > 91.2 µM | CCRF-CEM > 42.4 µM | HT-29 > 100 µM | SF-268 > 67.5 µM | SF-295 > 100 µM | A498 > 100 µM | OVCAR-8 > 100 µM | SK-MEL-5 > 100 µM | KM12 > 100 µM | SK-MEL-2 > 100 µM | NCI-H460 > 41.9 µM

COc1ccc(C2Oc3cc(OC)c(O)c(C)c3[C@H]2C)cc1 (some centres undefined)
inactive: HOP-92 > 100 µM | IGROV-1 > 100 µM | NCI-H23 57.3 µM | K562 61.2 µM | 786-0 > 100 µM | Malme-3M > 100 µM | ACHN 54.2 µM | CCRF-CEM 36.2 µM | HT-29 > 100 µM | SF-268 41.4 µM | SF-295 > 100 µM | A498 79.4 µM | OVCAR-8 70 µM | SK-MEL-5 62.7 µM | KM12 > 100 µM | SK-MEL-2 > 100 µM | NCI-H460 38.2 µM
